Earlier results as cited in paper PMC12120261, “Responsiveness of different MET tumour alterations to type I and type II MET inhibitors” (Clinical and Translational Medicine, 2025).

System: MET G1163R
Parameters: method as in PMID 31279006

Row | Compound | sensitivity of the solvent front G1163R mutation
1 | CNC(=O)c1ccc(-c2cnc3ncc(Cc4ccc5ncccc5c4)n3n2)cc1F [capmatinib] | remains sensitive
2 | C[C@@H](Oc1cc(-c2cnn(C3CCNCC3)c2)cnc1N)c1c(Cl)ccc(F)c1Cl [crizotinib, Crizotinib] | conferring resistance
3 | C[C@@H](c1ccc2nccn2c1)n1nnc2ncc(-c3cnn(C)c3)nc21 [savolitinib] | remains sensitive
